Test results taken from article PMC9363195, “Preclinical Pharmacokinetics, Biodistribution, and Acute Toxicity Evaluation of Caerin 1.9 Peptide in Sprague Dawley Rats” (Evidence-based Complementary and Alternative Medicine : eCAM, 2022).
Several values for one entry are separate records, joined by “and”; a condition that tells them apart may be missing. Equal values may be shown once. Read-outs that look alike come from different tables or passages of the source. Peptide text beside a SMILES is read from it.

Assays:
[1] = Pharmacokinetics of repeated subcutaneous injection of F3 (10.0 mg/kg daily, 14 days); type: in vivo, Sprague Dawley rats; conditions: for accumulation in plasma: after 14 days of repeated s.c. injection at 10.0 mg/kg; for CL/F: read-out: Cl_F_obs (clearance rate) (converted)
Experimental: The first day of F3 administration was recorded as day 1. At least 0.5 ml blood samples were obtained alternatively from 3M/3F rats at pre- and post-F3 injection time periods (0, 0.5, 1, 2, 4, 6, 8, and 24 hr).
(§1) The concentration of F3 in rat plasma was determined by liquid chromatography-tandem mass spectrometry, using the method established by Kanglong Huacheng Co., Ltd. The analyte was assayed by liquid chromatography coupled with the tandem mass spectrometry (LC-MS/MS) method. The LC-MS/MS system consisted of a Shimadzu HPLC system (Kyoto, Japan) and an LCMS-8060 instrument (serial no. 011105500332 AE). The following were the LC conditions: column, HALO ES-C18 2.7 µ C18 160A (50 × 2.1 mm); gradient elution at 0.5 mL/min with 5% acetonitrile in water containing 0.1% formic acid or 95% acetonitrile in water containing 0.1% formic acid; and injection volume of 10 µL. A multiple reaction monitoring (MRM) method was selected for quantitative analysis. For analyte and internal standard, the optimum transitions were 519.50 > 129.15 (five charges) and 649.15 > 120.10 (four charges), 393.20 > 373.25, and 237.15 > 194.15, respectively. The instrumental parameters were set as follows: nebulizing gas flow was 3 L/min; heating gas flow was 10 L/min; interface temperature was 300°C; DL temperature was 250°C; and heat block temperature was 400°C.
PK parameters were estimated by a noncompartmental model with the calculation model of “Linear Trapezoidal Linear Interpolation” using WinNonlin (Phoenix TM, version 8.1). If the plasma F3 was detected, the following pharmacokinetic parameters were measured and calculated: Cmax (maximum blood concentration), Tmax (peak time), T1/2 (elimination half-life), AUC (area under plasma concentration-time curve), Vz_F_obs (apparent distribution volume), Cl_F_obs (clearance rate), and MRTInf_obs (mean residence time).

[2] = Tissue distribution of single subcutaneous injection of F3 (1.0 mg/kg); type: in vivo, Sprague Dawley rats; conditions: LC-MS/MS; for F3 in tissue samples (heart, brain, liver, kidney, lung, spleen, stomach, small intestine, testis, ovaries, subcutaneous fat, skeletal muscle): single s.c. 1.0 mg/kg, 1, 2, 4, 8, 24, 48 h, LOQ in tissues 40–80 ng/g; for level at 4 h / level at 1 h / level at 2 h: Sprague-Dawley, rat, plasma, sc, n=3, read-out: F3 concentration in plasma; for level at 4 h: 4th hr; for level at 1 h: 1 hour after administration; for level at 2 h: mean
Experimental: as §1
Thirty-six SD rats (18 females, 18 males) were randomly selected and given a single subcutaneous injection of F3 at 1.0 mg/kg. Tissue samples were collected at 1, 2, 4, 8, 24, and 48 hours after F3 administration. At each time point, six rats (3 of each sex) were sacrificed. At least 0.5 ml of whole blood was collected before euthanasia, and 0.5–1.0 g of tissue was collected after euthanasia. The heart, brain, liver, kidney, lung, spleen, stomach, small intestine, testis, ovary, subcutaneous fat, and skeletal muscle were among the tissue types studied.
The desired serial concentrations of working solutions were achieved by diluting stock solution (1 mg/mL in DMSO) of analyte with 50% acetonitrile in water. 5 μL of working solutions (10 to 10000 ng/mL) were added to 50 μL of the blank rat plasma and tissues to achieve calibration standards or quality control (QC) samples of 1 to 1000 ng/mL in a total volume of 55 μL.
The resulting standard, QC, or study samples were added to 200 μL of methanol containing IS (50 ng/mL dexamethasone, 2 ng/mL verapamil and 2 ng/mL carbamazepine as internal standard (IS) for protein precipitation. All samples were then vortexed for 30 seconds. After centrifugation at 4°C and 4000 rpm (ca. 3740 x g) for 15 minutes, 100 µL of the supernatant was diluted with 200 µL of water for injection on LC-MS/MS.

[3] = female SD rats, s.c. 10.0 mg/kg daily x14 d, 14th dose, plasma, LC-MS/MS
[4] = female, Sprague-Dawley, rat, plasma, sc, 10 mg/kg, female SD rats, s.c. 10.0 mg/kg daily x14 d, 1st dose, LC-MS/MS
[5] = female, Sprague-Dawley, rat, plasma, sc, 10 mg/kg, female SD rats, s.c. 10.0 mg/kg daily x14 d, 14th dose, LC-MS/MS
[6] = male, Sprague-Dawley, rat, plasma, sc, 10 mg/kg, male SD rats, s.c. 10.0 mg/kg daily x14 d, 1st dose, LC-MS/MS
[7] = male, Sprague-Dawley, rat, plasma, sc, 10 mg/kg, male SD rats, s.c. 10.0 mg/kg daily x14 d, 14th dose, LC-MS/MS
[8] = female SD rats, single s.c. 1.0 mg/kg
[9] = male SD rats, single s.c. 1.0 mg/kg

CC[C@H](C)[C@H](NC(=O)[C@H](CO)NC(=O)CNC(=O)[C@H](CC(C)C)NC(=O)[C@@H](NC(=O)CNC(=O)[C@H](Cc1ccccc1)NC(=O)[C@H](CC(C)C)NC(=O)CN)C(C)C)C(=O)N[C@@H](C)C(=O)N[C@@H](CCCCN)C(=O)N[C@@H](Cc1c[nH]cn1)C(=O)N[C@H](C(=O)N[C@@H](CC(C)C)C(=O)N1CCC[C@H]1C(=O)N[C@@H](Cc1c[nH]cn1)C(=O)N[C@H](C(=O)N[C@H](C(=O)N1CCC[C@H]1C(=O)N[C@H](C(=O)N[C@H](C(=O)N[C@@H](C)C(=O)N[C@@H](CCC(=O)O)C(=O)N[C@@H](CCCCN)C(=O)N[C@@H](CC(C)C)C(N)=O)[C@@H](C)CC)C(C)C)C(C)C)C(C)C)C(C)C [F3, Caerin 1.9] (H-GLFGVLGSIAKHVLPHVVPVIAEKL-NH2)
accumulation in plasma ([1]; SD rats, 10 mg/kg): no F3 accumulation
accumulation in plasma ([1]; SD rats, listed as Caerin 1.9, 10 mg/kg): no accumulation
Tmax ([1]; SD rats, s.c., over single 1.0 mg/kg and repeated 10.0 mg/kg groups): between half an hour and one hour
AUC_%Extrap_obs ([1]; female SD rats, s.c. 10.0 mg/kg daily x14 d, 1st dose, plasma, LC-MS/MS): 1.48%
T max ([1]; female SD rats, s.c. 10.0 mg/kg daily x14 d, 1st dose, plasma, LC-MS/MS, 10 mg/kg): 1 h and 1.00 h
AUC_%Extrap_obs [1, 3]: 0.658%
T max [1, 3]: 1.00 h
AUC(0-inf) ([1]; female, Sprague Dawley, rat, plasma, sc, 10 mg/kg, female SD rats, s.c. 10.0 mg/kg daily x14 d, 14th dose, LC-MS/MS): 1110 ng·h/mL
AUC(0-inf) [1, 4]: 751 ng·h/mL
AUC(0-t) [1, 4]: 740 ng·h/mL
Cmax [1, 4]: 256 ng/mL
half-life [1, 4]: 1.33 h
CL/F ([1]; female, Sprague-Dawley, rat, plasma, sc, 10 mg/kg, female SD rats, s.c. 10.0 mg/kg daily x14 d, 1st dose, plasma, LC-MS/MS): 222 mL/min/kg
MRT ([1]; female, Sprague-Dawley, rat, plasma, sc, 10 mg/kg, female SD rats, s.c. 10.0 mg/kg daily x14 d, 1st dose, plasma, LC-MS/MS, read-out: MRTInf_obs (mean residence time)): 2.96 h
AUC(0-t) [1, 5]: 1100 ng·h/mL
Cmax [1, 5]: 496 ng/mL
half-life [1, 5]: 1.03 h
CL/F ([1]; female, Sprague-Dawley, rat, plasma, sc, 10 mg/kg, female SD rats, s.c. 10.0 mg/kg daily x14 d, 14th dose, plasma, LC-MS/MS): 150 mL/min/kg
MRT at 14 days ([1]; female, Sprague-Dawley, rat, plasma, sc, 10 mg/kg, female SD rats, s.c. 10.0 mg/kg daily x14 d, 14th dose, plasma, LC-MS/MS, read-out: MRTInf_obs (mean residence time)): 1.91 h
AUC_%Extrap_obs ([1]; male SD rats, s.c. 10.0 mg/kg daily x14 d, 1st dose, plasma, LC-MS/MS): 0.807%
T max ([1]; male SD rats, s.c. 10.0 mg/kg daily x14 d, 1st dose, plasma, LC-MS/MS, 10 mg/kg): 1 h
AUC_%Extrap_obs ([1]; male SD rats, s.c. 10.0 mg/kg daily x14 d, 14th dose, plasma, LC-MS/MS): 0.365%
AUC(0-inf) [1, 6]: 1910 ng·h/mL
AUC(0-t) [1, 6]: 1890 ng·h/mL
Cmax [1, 6]: 591 ng/mL
half-life [1, 6]: 4.58 h
CL/F ([1]; male, Sprague-Dawley, rat, plasma, sc, 10 mg/kg, male SD rats, s.c. 10.0 mg/kg daily x14 d, 1st dose, plasma, LC-MS/MS): 87.5 mL/min/kg
Tmax ([1]; male, Sprague-Dawley, rat, plasma, sc, 10 mg/kg, male SD rats, s.c. 10.0 mg/kg daily x14 d, 1st dose, plasma, LC-MS/MS, read-out: T max): 1 h
AUC(0-inf) [1, 7]: 1270 ng·h/mL
AUC(0-t) [1, 7]: 1270 ng·h/mL
Cmax [1, 7]: 527 ng/mL
half-life [1, 7]: 0.894 h
CL/F ([1]; male, Sprague-Dawley, rat, plasma, sc, 10 mg/kg, male SD rats, s.c. 10.0 mg/kg daily x14 d, 14th dose, plasma, LC-MS/MS): 131 mL/min/kg
MRT at 14 days ([1]; male, Sprague-Dawley, rat, plasma, sc, 10 mg/kg, male SD rats, s.c. 10.0 mg/kg daily x14 d, 14th dose, plasma, LC-MS/MS, read-out: MRTInf_obs (mean residence time)): 2.06 h
Tmax ([1]; male, Sprague-Dawley, rat, plasma, sc, 10 mg/kg, male SD rats, s.c. 10.0 mg/kg daily x14 d, 14th dose, plasma, LC-MS/MS, read-out: T max): 0.5 h
F3 in tissue samples (heart, brain, liver, kidney, lung, spleen, stomach, small intestine, testis, ovaries, subcutaneous fat, skeletal muscle) ([2]; SD rats, 1 mg/kg): No detectable F3
F3 in tissue samples (heart, brain, liver, kidney, lung, spleen, stomach, small intestine, testis, ovaries, subcutaneous fat, skeletal muscle) ([2]; SD rats, listed as Caerin 1.9, 1 mg/kg): < 40 ng/g
F3 in plasma samples collected at other time points ([2]; SD rats, single s.c. 1.0 mg/kg, time points other than 1, 2, 4 h (8, 24, 48 h)): No detectable F3
level at 4 h [2, 8]: 19.4 ± 5.96 ng/mL
level at 1 h [2, 8]: 174 ± 43 ng/mL
level at 2 h [2, 8]: 49.7 ± 1.71 ng/mL
level at 4 h [2, 9]: 20 ± 9.73 ng/mL
level at 1 h [2, 9]: 165 ± 46.5 ng/mL
level at 2 h [2, 9]: 104 ± 25.5 ng/mL
